In patent publication US7109175B1, “Specific steady-state R-type CA2+ channel blockers and use thereof” (Universite de Sherbrooke, priority 2000, dated 2006):
Entries after “also recorded” stand apart in the source; their conditions may differ.

Key:
[1] = tested on: R-type Ca^2+ channel; test: Fura-2 [Ca]i, human fetal heart cells; format: cell-based; details: 10^−9M, KCl 30 mM, PAF 10^−9M
Description: These two methods are used with single cells of different types as described above.
(§1) In another series of experiments we tested the effect of MV8608 (10^−9M) on R-type Ca^2+ channels stimulation-induced sustained increase of total intracellular Ca^2+ by sustained depolarization (FIGS. 15 to 19), by PAF (10^−9M) (FIGS. 16 to 19 and 21 to 22), by ET-1 (10^−9M) (FIGS. 16 and 19) and bradykinin (BK, 10^−6M) (FIGS. 20 and 21), in embryonic chick heart cells (FIGS. 15, 16, 19 and 20), 19-week-old human fetal heart cells (FIGS. 15, 17, 18 and 20), rabbit aortic vascular smooth muscle (VSM) cells (FIGS. 20 and 21), human aortic VSM cell-line (FIG. 23) and freshly isolated (FIG. 22) as well as in freshly isolated aortic endothelial cells (FIG. 22).

[2] = tested on: R-type Ca^2+ channel; test: Fura-2 [Ca]i, freshly isolated human aortic endothelial cells; format: cell-based; details: 10^−9M
Description: This sustained increase of Ca^2+ induced by depolarization of the cell membrane or hormones such as PAF, ET-1 and bradykinin is due to the increase of Ca^2+ influx through the R-type Ca^2+ channels at the sarcolemmal membrane and/or the nuclear membrane (Bkaily G., 1994, supra; 1996, supra; 1997a–d, supra). Using Ca^2+ fluorescence probes Fura-2 or Fluo-3 and 2 and three-dimension Ca^2+ imaging techniques (Bkaily G., 1994, supra; 1996, supra; 1997a–d, supra), the effect of hormones and drugs could be easily tested. These two methods are used with single cells of different types as described above.
as §1

[3] = tested on: L-type Ca^2+ current; test: Whole-cell voltage clamp, L-type Ca2+ current in heart cells of chick embryos; format: cell-based; details: for overall effect on L-type Ca2+ channel: summary in words
Method: (§2) Single cells of different types in culture were prepared from biopsies of human, chick and rabbit. Known and accepted methods for the isolation of fast Na^+ current, T, L and R-type Ca^2+ channels as well as delayed outward K^+ current were used (Bkaily 1994, supra).
(§3) The compounds to be tested are added to the appropriate extracellular solution after recording a stable ionic current or normal steady-state level of […]. The effect of different concentrations of compounds are tested on the different type of current and [Ca]i of the different cell types. The effect of each concentration of the compounds in function of the time of exposure are then determined. Once the steady-state effect is reached, the second concentration is added, etc.
In another series of experiments (n=5), the effect of different concentrations of MV8608 (10^−11 to 10^−6M) were tested on the L-type ICa of heart cells of chick embryos using the whole-cell and experimental conditions and protocols described elsewhere by the inventors (Bkaily G. et al., 1993, supra). As for the T-type ICa, the L-type ICa was not affected by 10^−11 to 10^−10M MV8608.
In another series of experiments (n=4), we tested the effect of MV8612 on the L-type Ca^2+ current (ICa) in chick embryonic heart cells using the whole-cell voltage clamp technique referred to above. Superfusion with 10^−9M of MV8612 decreased ICa amplitude by 10% and increasing the concentration of the compound up to 10^−8M further decreased the current amplitude by 25%. Higher concentration of MV8612 (10^−7M) decreased the ICa amplitude by 62%.

[4] = tested on: T-type Ca^2+ current; test: Whole-cell voltage clamp, T-type Ca2+ current in heart cells; format: cell-based
Method: as §2, §3
In another series of experiments (n=7), the effect of different concentrations of MV8608 were tested on the T-type Ca^2+ current (ICa) using the whole-cell voltage clamp technique and classical experimental conditions described elsewhere by the inventors (Bkaily G. et al., 1991, supra; 1992, supra; 1993, supra). […] As it can be seen in that figure, the inset effect of MV8608 in T-type ICa is immediate.

[5] = tested on: contraction of rat uterus induced by BK; details: Calixto et al. 1987; cited from earlier work
[6] = tested on: PAF-induced arterial vasodilatation and venconstriction; test: Double-perfused mesenteric bed of the rat
Description: The inhibitory properties of MV8608 are specific for PAF as the response to ACh (arterial) and AngII (venous) are unaffected by the pregnane-containing moiety.

[7] = tested on: tail-flick; test: Tail-flick in mice; format: in vivo; details: i.p.
[8] = tested on: anaesthetized guinea pig; test: Anaesthetized guinea pig, PAF bronchoconstriction and hypotension; format: in vivo
Description: (§4) On the other hand, in vivo administered PAF, induced a marked hypotension in the anaesthetized rat and guinea pig.

[9] = tested on: anaesthetized rat; test: Anaesthetized rat, blood pressure and PAF hypotension; format: in vivo; details: anaesthetized rat
Description: as §4

Structure (SMILES)	sustained increase of [Ca]i [1]	basal [Ca]i [2]	change of L-type ICa amplitude effect at higher concentration ([3]; 5×10^−7M)	decrease of L-type ICa amplitude ([3]; 10^−9M)	effect on L-type ICa ([3]; 10^−11 to 10^−10M)	overall effect on L-type Ca2+ channel [3]	overall effect on T-type ICa ([4]; 10^−9M and 10^−7M, heart cells)	effect on T-type ICa amplitude ([4]; 10^−9M to 10^−7M, n=7)	inhibition of BK-induced contraction of rat uterus [5]	response to ACh (arterial) and AngII (venous) [6]	PAF-induced responses (arterial vasodilatation, venconstriction) ([6]; 1 μM in FIG. 24)	ID50 TAIL-FLICK [7]	intrinsic hypotensive effect ([8]; guinea pig)	bronchoconstrictive responses to PAF ([8]; pretreatment)	hypotensive effects of PAF ([8]; pretreatment)	hypotensive effect of PAF after withdrawal of treatment ([8]; same animal)	hypotensive effect of PAF [9]	decrease of L-type ICa amplitude ([3]; 10^−7M)	decrease of L-type ICa amplitude ([3]; 10^−8M)
C[C@]12CC[C@H](O)CC1=CC[C@@H]1[C@@H]2CC[C@]2(C)[C@H]3[C@@H]4OC[C@H]3O[C@@H](O)[C@]12O4 [MV8608, (15R, 16R, 20S)-14, 16:15,20:16,21-triepoxi-15,16-seco 14β, 17α-pregn-5-ene-3β, 15-diol]	blockade	decrease of basal sustained increase of [Ca]i	further slight increase	10%	not affected	very weak depressor; also recorded: relative weak depressing effect	very weak depressor; also recorded: relative weak depressing effect	had no effect	selective in its ability to inhibit the contraction of rat uterus induced by BK	unaffected	concentration-dependent inhibition; also recorded: blocked PAF								
COC1CC(OC2C(C)OC(O[C@H]3CC[C@@]4(C)C(=CC[C@@H]5[C@@H]4CC[C@]4(C)[C@H]6[C@@H]7OC[C@H]6O[C@@H](O)[C@]54O7)C3)CC2OC)OC(C)C1OC1CC(OC)C(OC2CC(OC)C(OC3OC(C)C(OC(C)=O)C(OC)C3OC(C)=O)C(C)O2)C(C)O1 (stereo partly drawn) [MV8612]				10%		more potent L-type Ca^2+ channel antagonist properties than that of MV8608						no effect	devoid of marked intrinsic effect	abolishes	very significantly reduced; also recorded: abolishes	fully restored	Identical inhibition	62%	25%
